Data as given in ChEMBL document CHEMBL1201862, “PubChem BioAssay data set” (2004).
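Each compound was tested at five concentrations against cells in 96-well plates for 48 hours. GI50 = concentration required for 50% inhibition of growth.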 Active and inactive are the calls of the source. Rule as the data show it: active = GI50 up to about 1.1 µM and inactive = higher.

Tests used:
Experiment in all cases: growth of human tumour cells (NCI), 48 h
[1] = test system: HT-29
[2] = test system: NCI/ADR-RES
[3] = test system: Hs-578T
[4] = test system: SK-MEL-28
[5] = test system: CCRF-CEM
[6] = test system: SF-295
[7] = test system: A498
[8] = test system: MDA-MB-231
[9] = test system: U-251
[10] = test system: PC-3
[11] = test system: SF-268
[12] = test system: HCT-116
[13] = test system: SF-539
[14] = test system: NCI-H23
[15] = test system: HOP-62
[16] = test system: NCI-H226
[17] = test system: HCT-15
[18] = test system: LOX IMVI
[19] = test system: M14
[20] = test system: Malme-3M
[21] = test system: IGROV-1
[22] = test system: A549
[23] = test system: RPMI-8226
[24] = test system: SK-OV-3
[25] = test system: SK-MEL-2
[26] = test system: OVCAR-5
[27] = test system: TK-10
[28] = test system: SNB-19
[29] = test system: NCI-H522
[30] = test system: EKVX
[31] = test system: UACC-62
[32] = test system: MDA-N
[33] = test system: SN12C
[34] = test system: SR
[35] = test system: OVCAR-3
[36] = test system: KM12
[37] = test system: MDA-MB-435
[38] = test system: UACC-257
[39] = test system: SK-MEL-5
[40] = test system: SW-620
[41] = test system: UO-31
[42] = test system: HOP-92
[43] = test system: COLO 205
[44] = test system: BT-549
[45] = test system: HL-60
[46] = test system: MCF7
[47] = test system: CAKI-1
[48] = test system: NCI-H460
[49] = test system: K562
[50] = test system: MOLT-4
[51] = test system: OVCAR-8
[52] = test system: HCC 2998
[53] = test system: RXF 393
[54] = test system: ACHN
[55] = test system: 786-0
[56] = test system: SNB-75
[57] = test system: OVCAR-4
[58] = test system: DU-145

Compound: CC(=O)OC(C(=O)O)C(OC(C)=O)C(OC(C)=O)C(OC(C)=O)C(=O)O (configuration not stated)
- GI50 [1]: > 100 µM (inactive)
- GI50 [2]: > 100 µM (inactive)
- GI50 [3]: > 100 µM (inactive)
- GI50 [4]: > 100 µM (inactive)
- GI50 [5]: > 100 µM (inactive)
- GI50 [6]: > 100 µM (inactive)
- GI50 [7]: > 100 µM (inactive)
- GI50 [8]: > 100 µM (inactive)
- GI50 [9]: > 100 µM (inactive)
- GI50 [10]: > 100 µM (inactive)
- GI50 [11]: > 100 µM (inactive)
- GI50 [12]: > 100 µM (inactive)
- GI50 [13]: > 100 µM (inactive)
- GI50 [14]: > 100 µM (inactive)
- GI50 [15]: > 100 µM (inactive)
- GI50 [16]: > 100 µM (inactive)
- GI50 [17]: > 100 µM
- GI50 [18]: > 100 µM (inactive)
- GI50 [19]: > 100 µM (inactive)
- GI50 [20]: > 100 µM (inactive)
- GI50 [21]: > 100 µM (inactive)
- GI50 [22]: > 100 µM (inactive)
- GI50 [23]: > 100 µM (inactive)
- GI50 [24]: > 100 µM (inactive)
- GI50 [25]: > 100 µM (inactive)
- GI50 [26]: > 100 µM (inactive)
- GI50 [27]: > 100 µM (inactive)
- GI50 [28]: > 100 µM (inactive)
- GI50 [29]: > 100 µM (inactive)
- GI50 [30]: > 100 µM (inactive)
- GI50 [31]: > 100 µM (inactive)
- GI50 [32]: > 100 µM (inactive)
- GI50 [33]: > 100 µM (inactive)
- GI50 [34]: > 100 µM (inactive)
- GI50 [35]: > 100 µM (inactive)
- GI50 [36]: > 100 µM (inactive)
- GI50 [37]: > 100 µM (inactive)
- GI50 [38]: > 100 µM (inactive)
- GI50 [39]: > 100 µM (inactive)
- GI50 [40]: > 100 µM (inactive)
- GI50 [41]: > 100 µM (inactive)
- GI50 [42]: > 100 µM (inactive)
- GI50 [43]: > 100 µM (inactive)
- GI50 [44]: > 100 µM (inactive)
- GI50 [45]: > 100 µM (inactive)
- GI50 [46]: > 100 µM (inactive)
- GI50 [47]: > 100 µM (inactive)
- GI50 [48]: > 100 µM (inactive)
- GI50 [49]: > 100 µM (inactive)
- GI50 [50]: > 100 µM (inactive)
- GI50 [51]: > 100 µM (inactive)

Compound: CSc1nc(-c2cc3c(c(SC)n2)CCC3)cc2c1CCC2
- GI50 [1]: > 100 µM (inactive)
- GI50 [52]: > 100 µM (inactive)
- GI50 [2]: > 100 µM (inactive)
- GI50 [53]: > 100 µM (inactive)
- GI50 [4]: > 100 µM (inactive)
- GI50 [5]: > 100 µM (inactive)
- GI50 [6]: > 100 µM (inactive)
- GI50 [7]: > 100 µM (inactive)
- GI50 [8]: > 100 µM (inactive)
- GI50 [9]: > 100 µM (inactive)
- GI50 [10]: > 100 µM (inactive)
- GI50 [11]: > 100 µM (inactive)
- GI50 [12]: > 100 µM (inactive)
- GI50 [13]: > 100 µM (inactive)
- GI50 [14]: > 100 µM (inactive)
- GI50 [54]: > 100 µM (inactive)
- GI50 [15]: > 100 µM (inactive)
- GI50 [16]: > 100 µM (inactive)
- GI50 [17]: > 100 µM
- GI50 [19]: > 100 µM (inactive)
- GI50 [55]: > 100 µM (inactive)
- GI50 [22]: > 100 µM (inactive)
- GI50 [23]: > 100 µM (inactive)
- GI50 [24]: > 100 µM (inactive)
- GI50 [25]: > 100 µM (inactive)
- GI50 [26]: > 100 µM (inactive)
- GI50 [27]: > 100 µM (inactive)
- GI50 [28]: > 100 µM (inactive)
- GI50 [29]: > 100 µM (inactive)
- GI50 [30]: > 100 µM (inactive)
- GI50 [31]: > 100 µM (inactive)
- GI50 [32]: > 100 µM (inactive)
- GI50 [56]: > 100 µM (inactive)
- GI50 [33]: > 100 µM (inactive)
- GI50 [35]: > 100 µM (inactive)
- GI50 [57]: > 100 µM (inactive)
- GI50 [36]: > 100 µM (inactive)
- GI50 [37]: > 100 µM (inactive)
- GI50 [38]: > 100 µM (inactive)
- GI50 [39]: > 100 µM (inactive)
- GI50 [40]: > 100 µM (inactive)
- GI50 [41]: > 100 µM (inactive)
- GI50 [43]: > 100 µM (inactive)
- GI50 [44]: > 100 µM (inactive)
- GI50 [45]: > 100 µM (inactive)
- GI50 [58]: > 100 µM (inactive)
- GI50 [47]: > 100 µM (inactive)
- GI50 [48]: > 100 µM (inactive)
- GI50 [49]: > 100 µM (inactive)
- GI50 [50]: > 100 µM (inactive)
- GI50 [51]: > 100 µM (inactive)
